From PMC8151276, “An Integrated Approach toward NanoBRET Tracers for Analysis of GPCR Ligand Engagement” (Molecules, 2021) come the findings set out here.

Common to all, as to format: binding
For one assay, the target named is T1, TACR2 (Homo sapiens, UniProt P21452).
T1 construct: purchased Promega (in-house HiBiT-GPCR construct library, NanoBRET)
T1 sequence (P21452 1-398): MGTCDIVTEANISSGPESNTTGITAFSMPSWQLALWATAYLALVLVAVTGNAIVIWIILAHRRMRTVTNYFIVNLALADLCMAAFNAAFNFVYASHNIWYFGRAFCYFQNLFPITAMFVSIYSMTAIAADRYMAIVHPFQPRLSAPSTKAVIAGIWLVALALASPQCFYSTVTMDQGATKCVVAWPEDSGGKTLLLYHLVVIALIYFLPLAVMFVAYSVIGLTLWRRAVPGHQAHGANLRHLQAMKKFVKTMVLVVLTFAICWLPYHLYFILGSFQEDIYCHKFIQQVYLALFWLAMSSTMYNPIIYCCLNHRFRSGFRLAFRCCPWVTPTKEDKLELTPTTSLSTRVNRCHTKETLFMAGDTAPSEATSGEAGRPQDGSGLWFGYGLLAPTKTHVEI
The experiment in a line: NanoBRET screen HiBiT-TACR2 in HEK293. The protocol: (§1) Each tracer candidate was screened across the entire library of HiBiT-GPCR constructs using NanoBRET as the detection modality. As depicted in Figure 4A, the specificity of interactions was evaluated through decrease in BRET due to competitive displacement of a bound tracer by excess parental compound. Each tracer was analyzed for binding to each HiBiT-GPCR fusion in the absence and in the presence of competing parental compound. Briefly, HEK293 cells were transfected with HiBiT-GPCR constructs diluted into promoterless DNA to reduce expression and maximize translocation to the cell surface. Each tracer candidate was then screened at concentrations of 1 μM and 0.1 μM across cells expressing these fusions. Cells were treated for 1.5 h with tracer either alone or in the presence of 20 μM competing parental compound (i.e., control). BRET was measured upon addition of purified LgBiT and subsequent complementation with HiBiT genetically fused to a GPCR. The specificity of interactions was assessed through a decrease in BRET signal due to competitive displacement of the bound tracer. To further gauge the robustness of these interactions, the fold response over the control (i.e., BRETtracer/BRETcontrol) was calculated. We chose a 1.5-fold response, which translates to ≥7-fold signal over noise as the minimal threshold required to score an interaction as positive. […]. Below we highlight the screening results obtained for our exemplary fluorescent tracers based on Clozapine, Amitriptyline and AZD1283.
(§2) HiBiT-GPCR DNA constructs were diluted in 10 mM Tris pH 8 to a final concentration of 0.01 μg/μL, arrayed in 96-well plates and stored at −20 °C. For transfection, HEK293 cells were suspended in Opti-MEM (without phenol red) supplemented with 2% fetal bovine serum (Seradigm) and 100 units/mL penicillin–streptomycin (Gibco) at a final concentration of 220,000 cells/mL and dispensed into white 96-well plates at 90 μL/well. Subsequent transfections and screens were carried using an Agilent Bravo Automated Liquid Handling Platform. First, the 96-well HiBiT DNA arrays were diluted 25-fold in Opti-MEM (without serum or phenol red) to a final concentration of 0.0004 μg/μL and 20 μL of the diluted DNAs were transferred into new 96-well plates. Next, promoterless carrier DNA (1 μg/μL) was diluted 25-fold (0.04 μg/μL) and then dispensed into the diluted arrays at 20 μL/well. Following brief mixing, Viafect transfection reagent (Promega) diluted 16-fold into Opti-MEM was dispensed into the plates at 40 μL/well. After mixing by pipetting, plates were incubated for 10 min on the pipetting station deck. The DNA-transfection reagent complexes were then added to plates containing cells. To facilitate the screen, 10 μL of DNA-transfection reagent complexes were added in duplicates to the top 4 and bottom 4 rows, resulting in two identical 48-well arrays per plate. Plates with transfected cells were incubated for 18–20 h at 37 °C/5% CO2. A screen of each tracer across the entire library using two different concentrations requires duplicate plates of transfected cells. Depending on the number of tracers being screened, transfections can be scaled up using the same ratios. The next day, for each tracer, four 20× screening solutions in tracer dilution buffer (Promega) were prepared: two duplicates at final concentration of 20 μM and two duplicates at a final concentration of 2 μM. A competing unmodified compound was added to one of each duplicate at a final concentration of 400 μM. The four resulting solutions were diluted 4-fold in Opti-MEM without serum or phenol red to generate 5× solutions (5 µM and 0.5 µM tracer +/− 100 μM competing compound). To screen the library, a BioTek MultiFlo FX liquid dispenser was used to dispense 22.5 µL of tracer solution to the top 4 rows and 22.5 µL tracer + competing compound solution to the 4 bottom rows. Plates were briefly mixed on an orbital shaker and incubated for 1.5 h at room temperature. […]
(In general: In BRET a luciferase serves as donor, and the signal depends on an acceptor being close.)

The target of the next assay is T2, AVPR1B (Homo sapiens, UniProt P47901).
T2 construct: purchased Promega (in-house HiBiT-GPCR construct library, NanoBRET)
T2 sequence (P47901 1-424): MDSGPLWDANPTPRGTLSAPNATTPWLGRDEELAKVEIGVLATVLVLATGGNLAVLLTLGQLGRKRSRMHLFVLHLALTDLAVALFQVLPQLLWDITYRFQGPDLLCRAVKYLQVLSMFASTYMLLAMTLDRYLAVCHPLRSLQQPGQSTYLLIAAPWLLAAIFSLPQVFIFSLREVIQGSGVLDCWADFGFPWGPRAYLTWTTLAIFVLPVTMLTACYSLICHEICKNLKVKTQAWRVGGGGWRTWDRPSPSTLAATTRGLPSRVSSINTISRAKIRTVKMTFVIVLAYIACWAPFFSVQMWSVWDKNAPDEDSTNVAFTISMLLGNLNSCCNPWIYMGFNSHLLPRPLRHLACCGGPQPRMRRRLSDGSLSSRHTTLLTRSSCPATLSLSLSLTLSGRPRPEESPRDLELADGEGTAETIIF
Briefly: NanoBRET screen HiBiT-AVPR1B in HEK293. Here is the method:
as §1, §2

A further assay addresses T3, PTGFR (Homo sapiens, UniProt P43088).
T3 construct: purchased Promega (in-house HiBiT-GPCR construct library, NanoBRET)
Briefly: NanoBRET screen HiBiT-PTGFR in HEK293. The protocol:
as §1, §2

Another assay deals with T4, GHSR (Homo sapiens, UniProt Q92847).
T4 construct: purchased Promega (in-house HiBiT-GPCR construct library, NanoBRET)
Briefly: NanoBRET screen HiBiT-GHSR in HEK293. The protocol:
as §1, §2

The target of another assay is T5, LTB4R (Homo sapiens, UniProt Q15722).
T5 construct: purchased Promega (in-house HiBiT-GPCR construct library, NanoBRET)
Briefly: NanoBRET screen HiBiT-LTB4R in HEK293. Here is the method: as §1, §2

The mark [1] stands for this setting: tracer at 0.1μM, listed as amitriptyline-b-2-NB590.
Setting [2] is: tracer at 1μM, listed as amitriptyline-b-2-NB590.

T4 sequence (Q92847 whole entry): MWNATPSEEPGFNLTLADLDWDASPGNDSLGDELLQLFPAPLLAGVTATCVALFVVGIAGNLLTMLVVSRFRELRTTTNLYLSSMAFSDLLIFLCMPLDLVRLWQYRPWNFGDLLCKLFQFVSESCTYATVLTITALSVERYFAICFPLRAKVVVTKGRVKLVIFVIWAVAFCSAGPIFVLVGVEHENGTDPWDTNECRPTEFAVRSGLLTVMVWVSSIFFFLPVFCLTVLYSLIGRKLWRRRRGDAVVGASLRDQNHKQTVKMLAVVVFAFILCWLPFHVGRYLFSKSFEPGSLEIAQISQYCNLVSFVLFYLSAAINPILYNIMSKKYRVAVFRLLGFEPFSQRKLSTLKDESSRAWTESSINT
T5 sequence (Q15722 whole entry): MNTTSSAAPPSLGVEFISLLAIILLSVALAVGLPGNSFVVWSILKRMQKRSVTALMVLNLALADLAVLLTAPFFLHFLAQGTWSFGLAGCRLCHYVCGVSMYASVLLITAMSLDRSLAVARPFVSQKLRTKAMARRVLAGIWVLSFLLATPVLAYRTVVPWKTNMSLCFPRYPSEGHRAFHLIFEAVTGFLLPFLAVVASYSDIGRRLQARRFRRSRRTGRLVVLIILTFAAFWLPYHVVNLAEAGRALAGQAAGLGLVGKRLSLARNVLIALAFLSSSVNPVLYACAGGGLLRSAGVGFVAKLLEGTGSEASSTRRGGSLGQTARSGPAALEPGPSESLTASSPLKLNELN
T3 sequence (P43088 whole entry): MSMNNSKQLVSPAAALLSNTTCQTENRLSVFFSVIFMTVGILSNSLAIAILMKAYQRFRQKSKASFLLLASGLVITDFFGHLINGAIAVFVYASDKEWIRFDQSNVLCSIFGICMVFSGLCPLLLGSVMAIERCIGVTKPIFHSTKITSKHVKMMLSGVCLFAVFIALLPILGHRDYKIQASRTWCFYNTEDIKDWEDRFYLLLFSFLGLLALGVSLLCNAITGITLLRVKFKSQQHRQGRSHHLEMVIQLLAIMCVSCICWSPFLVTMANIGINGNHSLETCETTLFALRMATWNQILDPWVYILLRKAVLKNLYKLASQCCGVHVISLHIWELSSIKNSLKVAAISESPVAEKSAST

With `COc1ccccc1N1CCN(CCCCN2C(=O)c3ccc(CNC(=O)CCOCCNC(=O)c4ccc(CNC(=O)CCc5ccc6n5[B-](F)(F)[N+]5=C(c7ccc[nH]7)C=CC5=C6)cc4)cc3C2=O)CC1` [NAN-190-3-NB590], the “NanoBRET Fold Response” value on TACR2 (TACR2, tracer 0.1μM) amounted to 1.12; at TACR2 (TACR2, tracer 1μM) it was 1.09; at AVPR1B (AVPR1B, tracer 0.1μM), 1.04; at AVPR1B (AVPR1B, tracer 1μM) it was 1.04; on PTGFR (PTGFR, tracer 0.1μM), 0.96; at PTGFR (PTGFR, tracer 1μM), 0.90. Moreover, the “NanoBRET Fold Response” value at GHSR (GHSR, tracer 0.1μM) came out at 0.86; on GHSR (GHSR, tracer 1μM), 1.06; on LTB4R (LTB4R, tracer 0.1μM), 1.02; on LTB4R (LTB4R, tracer 1μM) it was 1.09.

`N#CN=C(NCCCOc1cccc(CN2CCCCC2)c1)NCCNC(=O)CCOCCOCCOCCOCCNC(=O)CCc1ccc2n1[B-](F)(F)[N+]1=C(c3ccc[nH]3)C=CC1=C2` [Aminopotentidine-2-NB590]: the “NanoBRET Fold Response” value on TACR2 (TACR2, tracer 0.1μM) stood at 0.98; at TACR2 (TACR2, tracer 1μM), 1.02; on AVPR1B (AVPR1B, tracer 0.1μM), 1.09; at AVPR1B (AVPR1B, tracer 1μM), 1.04; at PTGFR (PTGFR, tracer 0.1μM) it was 0.99; on PTGFR (PTGFR, tracer 1μM), 0.93. Besides, the “NanoBRET Fold Response” value on GHSR (GHSR, tracer 0.1μM) is 0.98; at GHSR (GHSR, tracer 1μM) it was 1.07; at LTB4R (LTB4R, tracer 0.1μM), 1.03; on LTB4R (LTB4R, tracer 1μM), 0.99.

With `CN(C)CCC=C1c2ccccc2CCc2ccc(C(=O)NCCNC(=O)CCOCCOCCOCCOCCNC(=O)CCc3ccc4n3[B-](F)(F)[N+]3=C(c5ccc[nH]5)C=CC3=C4)cc21` [Amitriptyline-b-2-NB590], the “NanoBRET Fold Response” value at TACR2 (setting [1]) came out at 0.86; on TACR2 (setting [2]), 1.17; on AVPR1B (setting [1]), 0.84; at AVPR1B (setting [2]), 1.18; on PTGFR (tracer at 0.1μM), 1.01; at PTGFR (tracer at 1μM), 1.00. Moreover, the “NanoBRET Fold Response” value was determined as 1.07 on GHSR (setting [1]), 0.97 at GHSR (setting [2]) and 1.02 on LTB4R (setting [2]).

As for `O=C(CCOCCOCCOCCOCCNC(=O)CCc1ccc2n1[B-](F)(F)[N+]1=C(c3ccc[nH]3)C=CC1=C2)NCCCN1CCN(C2=Nc3ccccc3Oc3ccc(Cl)cc32)CC1` [Loxapine-a-2-NB590], the “NanoBRET Fold Response” value was found to be 0.86 on TACR2 (TACR2, tracer 0.1μM); 0.64 on TACR2 (TACR2, tracer 1μM); 1.06 on AVPR1B (AVPR1B, tracer 0.1μM); 0.96 at AVPR1B (AVPR1B, tracer 1μM); 1.03 at PTGFR (PTGFR, tracer 0.1μM); 1.02 on PTGFR (PTGFR, tracer 1μM). Also, the “NanoBRET Fold Response” value on GHSR (GHSR, tracer 0.1μM) is 0.97; at GHSR (GHSR, tracer 1μM), 1.09; on LTB4R (LTB4R, tracer 0.1μM) it was 1.05; at LTB4R (LTB4R, tracer 1μM), 0.96.

With `CCCn1c(=O)c2[nH]c(-c3ccc(OCC(=O)NCCNC(=O)CCOCCNC(=O)c4ccc(CNC(=O)CCc5ccc6n5[B-](F)(F)[N+]5=C(c7ccc[nH]7)C=CC5=C6)cc4)cc3)nc2n(CCC)c1=O` [XAC-3-NB590], the “NanoBRET Fold Response” value on TACR2 (TACR2, tracer 0.1μM) amounted to 0.96; on TACR2 (TACR2, tracer 1μM), 1.21; on AVPR1B (AVPR1B, tracer 0.1μM) it was 0.90; on AVPR1B (AVPR1B, tracer 1μM) it was 1.21; at PTGFR (PTGFR, tracer 0.1μM), 1.02; on PTGFR (PTGFR, tracer 1μM), 0.98. In addition, the “NanoBRET Fold Response” value at GHSR (GHSR, tracer 0.1μM) was 1.07; at GHSR (GHSR, tracer 1μM) it was 1.02; at LTB4R (LTB4R, tracer 0.1μM) it was 1.09; on LTB4R (LTB4R, tracer 1μM) it was 1.11.

As to `CCOC(=O)c1cc(C#N)c(N2CCC(C(=O)NS(=O)(=O)Cc3ccccc3/C=C/C(=O)NCCNC(=O)CCc3ccc4n3[B-](F)(F)[N+]3=C(c5ccc[nH]5)C=CC3=C4)CC2)nc1C` [AZD1283-1-NB590], the “NanoBRET Fold Response” value on TACR2 (TACR2, 0.1μM) came to 1.09; on TACR2 (TACR2, 1μM), 1.04; on AVPR1B (AVPR1B, 0.1μM) it was 0.97; on AVPR1B (AVPR1B, 1μM), 1.05; on PTGFR (PTGFR, 0.1μM), 1.02; at PTGFR (PTGFR, 1μM) it was 1.02. The “NanoBRET Fold Response” value is listed as 1.01 at GHSR (GHSR, 0.1μM); 1.04 at GHSR (GHSR, 1μM); 1.16 on LTB4R (LTB4R, 0.1μM); 1.16 on LTB4R (LTB4R, 1μM).
